Read-outs that look alike come from different tables or passages of the source. Each block holds one compound with its values, some of them ahead of it.
Key:
recombinant human TDP2 = biological target: T1, recombinant human TDP2 (Homo sapiens, UniProt O95551); test: Gel-based TDP2 activity assay (removal of 5'-tyrosine from oligonucleotide, PAGE); assay type: biochemical; parameters: key to Tdp2 activity, c 200 µM / Tdp2 (inhibitor concentration 1 mM): TDP2 active (+); -: inactive (−); conditions: for Tdp2 activity, c 200 µM: c 200 µM (Table S3 head); for Tdp2 (inhibitor concentration 1 mM) / remaining activity at 1000 µM: inhibitor 1 mM; for remaining activity at 1000 µM: residual enzyme activity, read-out: TDP2 (Inhibitor Concentration 1 mM), residual activity of TDP2
T1 sequence (O95551 1-362): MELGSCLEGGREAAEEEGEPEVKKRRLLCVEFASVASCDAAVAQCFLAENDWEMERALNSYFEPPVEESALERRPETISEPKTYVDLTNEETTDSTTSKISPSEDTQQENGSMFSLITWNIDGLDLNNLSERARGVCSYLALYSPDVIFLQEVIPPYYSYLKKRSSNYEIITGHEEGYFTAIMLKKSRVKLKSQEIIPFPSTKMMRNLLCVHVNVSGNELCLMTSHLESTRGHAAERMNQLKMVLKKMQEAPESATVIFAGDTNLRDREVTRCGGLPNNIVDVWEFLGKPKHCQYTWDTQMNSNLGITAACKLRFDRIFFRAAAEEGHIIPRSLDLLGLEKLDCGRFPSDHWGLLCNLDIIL
Protocol: We investigated the activity against the TDP2 enzyme for compounds 4–10, 12–15, and 17–19 (Table 1). TDP2 was tested for its ability to eliminate tyrosine residue from the 5’-end of the oligonucleotide substrate. The TDP2 reaction products were separated under denaturing conditions in polyacrylamide gel (PAGE). […] Note that as different assays formats were used for TDP1 and TDP2 inhibition, the value of these assays cannot be directly compared. A paper on derivatives of usnic acid as effective TDP1 inhibitors and mild inhibitors of TDP2 was recently published. […] More inhibitors of this enzyme have also been reported in the literature. Obviously, further work for increasing activity against TDP2 is needed.
The oligonucleotide with tyrosine residue on the 5′-end (5′-tyrosine-AAC GTC AGG GTC TTC C-FAM-3′) was used for the TDP2 enzyme activity assay. The TDP2 reaction products were separated under denaturing conditions in polyacrylamide gel (PAGE). The reaction was performed in a final volume of 20 μL using 100 nM substrate incubated with 200 nM recombinant human TDP2 in the absence or presence of the inhibitor for 10 min at 37 °C in a buffer containing 50 mM Tris-HCl, pH 8.0, 50 mM NaCl, 7 mM β-mercaptoethanol. Reactions were terminated by the addition of gel loading buffer contained 10% formamide, 7 M carbamide, 0.1% xylene cyanol, and 0,1% bromophenol blue. The samples were heated at 90 °C for 7 min before loading on the gel. The reaction products were separated by electrophoresis in a 20% denaturing PAGE with 7 M carbamide. A Typhoon FLA 9500 phosphorimager (GE Healthcare) was used for gel scanning and imaging. Each experiment was carried out in three independent replicates. The data were analyzed with QuantityOne 4.6.7 software.

TDP1 = TDP1 (Homo sapiens, UniProt Q9NUW8); test: Real-time fluorescence detection of TDP1 activity (FAM/BHQ1 oligonucleotide biosensor); assay type: biochemical
Description: For real-time detection of TDP1 activity, we used the oligonucleotide biosensor based on the ability of TDP1 to remove fluorophore quenchers from the 3′-end of DNA [29]. The hexadecameric oligonucleotide carried 5(6)-carboxyfluorescein (FAM) at the 5′-end and fluorophore quencher BHQ1 (Black Hole Quencher-1) at the 3′-end. TDP1 inhibitors prevent the removal of fluorophore quenchers, thus reducing fluorescence intensity.
TDP1 activity was detected, as described by intensity measurement in a reaction of quencher removal from a fluorophore quencher–coupled DNA oligonucleotide catalyzed by TDP1. The reaction was carried out at different concentrations of inhibitors (the control samples contained 1% of DMSO). The reaction mixtures contained TDP1 buffer (50 mM Tris-HCl pH 8.0, 50 mM NaCl, and 7 mM β-mercaptoethanol), 50 nM biosensor, and an inhibitor being tested. Purified TDP1 (1.5 nM) triggered the reaction. The biosensor (5′-[FAM] AAC GTC AGGGTC TTC C [BHQ]-3′) was synthesized in the Laboratory of Nucleic Acid Chemistry at the Institute of Chemical Biology and Fundamental Medicine (Novosibirsk, Russia).
The reactions were incubated on a POLARstar OPTIMA fluorimeter (BMG LABTECH, GmbH, Ortenberg, Germany) to measure fluorescence every 60 s (ex. 485/em. 520 nm) during the linear phase (here, data from minute 0 to minute 8). The values of IC50 were determined using a six-point concentration response curve in a minimum of three independent experiments and were calculated using MARS Data Analysis 2.0 (BMG LABTECH, Ortenberg, Germany).

[1] = Intrinsic cytotoxicity, EZ4U assay, HEK293A; conditions: human, HEK293A cells
Protocol: (§1) Next, we examined the intrinsic cytotoxicity of the compounds on HeLa cervical cancer cells and human embryonic kidney derived cells HEK293A.
(§2) Cytotoxicity of the compounds to HeLa (human cervical cancer) and HEK293A (human embryonic kidney) cell lines was examined using the EZ4U Cell Proliferation and Cytotoxicity Assay (Biomedica, Vienna, Austria), according to the manufacturer’s protocols. The cells were grown in Iscove’s modified Dulbecco’s medium (IMDM) with 40 μg/mL gentamicin, 50 IU/mL penicillin, 50 μg/mL streptomycin (MP Biomedicals, Waltham, MA, USA), and 10% of fetal bovine serum (Biolot, Saint Petersburg, Russia) in a 5% CO2 atmosphere. After the formation of a 30–50%monolayer, the tested compounds were added to the medium. […] The volume of the added reagents was 1/100 of the total volume of the culture medium, and the amount of DMSO was 1% of the final volume. Control cells were grown in the presence of 1% DMSO. The cell culture was monitored for three days.

[2] = Intrinsic cytotoxicity, EZ4U assay, HeLa; conditions: human, HeLa cells
Protocol: as §1, §2

[3] = read-out: IC50 (Tdp1, Table S4)
[4] = concentration that inhibits the activity of the enzyme by 50%, read-out: TDP1 IC50

Sequence of TDP1 (Q9NUW8 whole entry): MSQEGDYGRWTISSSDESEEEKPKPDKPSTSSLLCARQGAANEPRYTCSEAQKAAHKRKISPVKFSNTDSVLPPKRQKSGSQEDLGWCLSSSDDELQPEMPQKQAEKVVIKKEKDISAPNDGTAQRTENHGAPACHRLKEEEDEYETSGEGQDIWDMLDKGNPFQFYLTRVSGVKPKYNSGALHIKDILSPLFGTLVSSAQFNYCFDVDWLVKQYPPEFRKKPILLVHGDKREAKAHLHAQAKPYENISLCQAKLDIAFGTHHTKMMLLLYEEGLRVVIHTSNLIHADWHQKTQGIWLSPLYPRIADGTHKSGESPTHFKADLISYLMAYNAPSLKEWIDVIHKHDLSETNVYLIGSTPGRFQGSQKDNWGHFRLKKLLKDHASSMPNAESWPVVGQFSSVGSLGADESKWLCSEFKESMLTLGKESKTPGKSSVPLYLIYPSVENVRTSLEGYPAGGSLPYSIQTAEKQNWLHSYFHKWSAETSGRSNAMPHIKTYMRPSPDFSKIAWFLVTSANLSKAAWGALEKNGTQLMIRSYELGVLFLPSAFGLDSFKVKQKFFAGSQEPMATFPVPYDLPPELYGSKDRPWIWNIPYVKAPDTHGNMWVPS

Compound: C[C@H](CCC(=O)O)[C@H]1CC[C@H]2[C@@H]3CC[C@@H]4C[C@H](OCc5ccccc5)CC[C@]4(C)[C@H]3C[C@H](OCc3ccccc3)[C@]12C [Compound 1, 3α,12α-Dibenzyloxy-5β-cholan-24-oic acid]
Tdp2 activity, c 200 µM (recombinant human TDP2): + | Tdp2 (inhibitor concentration 1 mM) (recombinant human TDP2): + | melting point: 181.2 °C (dec.) | IC50 (TDP1; [3]): 440 nM

Compound: C[C@H](CCC(=O)O)[C@H]1CC[C@H]2[C@@H]3CC[C@@H]4C[C@H](OCc5ccccc5)CC[C@]4(C)[C@H]3C[C@H](O)[C@]12C [Compound 2, 3α-Benzyloxy-12α-hydroxy-5β-cholan-24-oic Acid]
Tdp2 activity, c 200 µM (recombinant human TDP2): + | Tdp2 (inhibitor concentration 1 mM) (recombinant human TDP2): + | melting point: 86 °C (dec.) | IC50 (TDP1; [3]): 18300 nM

Compound: C[C@H](CCC(=O)O)[C@H]1CC[C@H]2[C@@H]3CC[C@@H]4C[C@H](OCc5ccccc5)CC[C@]4(C)[C@H]3CC(=O)[C@]12C [Compound 3, 3α-Benzyloxy-12α-oxo-5β-cholan-24-oic Acid]
Tdp2 activity, c 200 µM (recombinant human TDP2): + | Tdp2 (inhibitor concentration 1 mM) (recombinant human TDP2): + | melting point: 147.9 °C | IC50 (TDP1; [3]): 780 nM

Compound: C[C@H](CCC(=O)NCCc1c[nH]c2ccccc12)[C@H]1CC[C@H]2[C@@H]3CC[C@@H]4C[C@H](OCc5ccccc5)CC[C@]4(C)[C@H]3C[C@H](OCc3ccccc3)[C@]12C [Compound 4, N-(2″-(1H-Indol-3′-yl)ethyl)-3α,12α-dibenzyloxy-5β-cholane-24-amide]
Tdp2 activity, c 200 µM (recombinant human TDP2): + | Tdp2 (inhibitor concentration 1 mM) (recombinant human TDP2): + | remaining activity at 1000 µM (recombinant human TDP2): 35 ± 4% | CC50 at 72 h [1]: > 100000 nM | IC50 (TDP1; [4]): 750 ± 170 nM | CC50 at 72 h [2]: > 100000 nM

Compound: C[C@H](CCC(=O)NCCc1c[nH]c2ccccc12)[C@H]1CC[C@H]2[C@@H]3CC[C@@H]4C[C@H](OCc5ccccc5)CC[C@]4(C)[C@H]3CC(=O)[C@]12C [Compound 6, N-(2″-(1H-Indol-3′-yl)ethyl)-3α-benzyloxy-12-oxo-5β-cholane-24-amide]
Tdp2 activity, c 200 µM (recombinant human TDP2): + | Tdp2 (inhibitor concentration 1 mM) (recombinant human TDP2): + | remaining activity at 1000 µM (recombinant human TDP2): 45 ± 4% | CC50 at 72 h [1]: > 100000 nM | IC50 (TDP1; [4]): 590 ± 130 nM | CC50 at 72 h [2]: > 100000 nM

Compound: C[C@H](CCC(=O)Nc1ccc(Br)cc1)[C@H]1CC[C@H]2[C@@H]3CC[C@@H]4C[C@H](OCc5ccccc5)CC[C@]4(C)[C@H]3C[C@H](OCc3ccccc3)[C@]12C [Compound 7, N-(4′-Bromophenyl)-3α,12α-dibenzyloxy-5β-cholane-24-amide]
Tdp2 activity, c 200 µM (recombinant human TDP2): + | Tdp2 (inhibitor concentration 1 mM) (recombinant human TDP2): + | remaining activity at 1000 µM (recombinant human TDP2): 44 ± 5% | melting point: 186.2 to 191.3 °C | IC50 (TDP1; [4]): 970 ± 460 nM

Compound: C[C@H](CCC(=O)Nc1ccc(Br)cc1)[C@H]1CC[C@H]2[C@@H]3CC[C@@H]4C[C@H](OCc5ccccc5)CC[C@]4(C)[C@H]3CC(=O)[C@]12C [Compound 9, N-(4′-Bromophenyl)-3α-benzyloxy-12-oxo-5β-cholane-24-amide]
Tdp2 activity, c 200 µM (recombinant human TDP2): + | Tdp2 (inhibitor concentration 1 mM) (recombinant human TDP2): + | remaining activity at 1000 µM (recombinant human TDP2): 39 ± 6% | CC50 at 72 h [1]: > 100000 nM | IC50 (TDP1; [4]): 710 ± 340 nM | CC50 at 72 h [2]: > 100000 nM

melting point: 58 °C (dec.)
Compound: C[C@H](CCC(=S)Nc1ccc(Br)cc1)[C@H]1CC[C@H]2[C@@H]3CC[C@@H]4C[C@H](OCc5ccccc5)CC[C@]4(C)[C@H]3C[C@H](OCc3ccccc3)[C@]12C [Compound 11, N-(4′-Bromophenyl)-3α,12α-dibenzyloxy-5β-cholane-24-thioamide]

Compound: C[C@H](CCC(=O)O/N=C(\N)Cc1ccc(Br)cc1)[C@H]1CC[C@H]2[C@@H]3CC[C@@H]4C[C@H](OCc5ccccc5)CC[C@]4(C)[C@H]3C[C@H](OCc3ccccc3)[C@]12C [Compound 12]
Tdp2 activity, c 200 µM (recombinant human TDP2): + | Tdp2 (inhibitor concentration 1 mM) (recombinant human TDP2): + | remaining activity at 1000 µM (recombinant human TDP2): < 50% | melting point: 80.2 to 83.9 °C | IC50 (TDP1; [4]): 320 ± 130 nM

Compound: C[C@H](CCc1nc(Cc2ccc(Br)cc2)no1)[C@H]1CC[C@H]2[C@@H]3CC[C@@H]4C[C@H](OCc5ccccc5)CC[C@]4(C)[C@H]3C[C@H](OCc3ccccc3)[C@]12C [Compound 13, 5′-(24-Nor-3α,12α-dibenzyloxy-5β-cholan-23-yl)-3′-(methyl(4″-bromophenyl))-1′,2′,4′-oxadiazole]
Tdp2 activity, c 200 µM (recombinant human TDP2): - | Tdp2 (inhibitor concentration 1 mM) (recombinant human TDP2): - | remaining activity at 1000 µM (recombinant human TDP2): > 50% | IC50 (TDP1; [4]): 530 ± 230 nM

Compound: C[C@H](CCC(=O)O/N=C(\N)c1ccc(Br)cc1)[C@H]1CC[C@H]2[C@@H]3CC[C@@H]4C[C@H](OCc5ccccc5)CC[C@]4(C)[C@H]3C[C@H](OCc3ccccc3)[C@]12C [Compound 14]
Tdp2 activity, c 200 µM (recombinant human TDP2): + | Tdp2 (inhibitor concentration 1 mM) (recombinant human TDP2): + | remaining activity at 1000 µM (recombinant human TDP2): < 50% | melting point: 144.5 to 147.4 °C | IC50 (TDP1; [4]): 330 ± 150 nM

Compound: C[C@H](CCc1nc(-c2ccc(Br)cc2)no1)[C@H]1CC[C@H]2[C@@H]3CC[C@@H]4C[C@H](OCc5ccccc5)CC[C@]4(C)[C@H]3C[C@H](OCc3ccccc3)[C@]12C [Compound 15, 5′-(24-Nor-3α,12α-Dibenzyloxy-5β-cholan-23-yl)-3′-(4″-bromophenyl)-1′,2′,4′-oxadiazole]
Tdp2 activity, c 200 µM (recombinant human TDP2): - | Tdp2 (inhibitor concentration 1 mM) (recombinant human TDP2): - | remaining activity at 1000 µM (recombinant human TDP2): > 50% | melting point: 130.2 to 135.5 °C | IC50 (TDP1; [4]): 420 ± 300 nM

Compound: COC(=O)CC[C@@H](C)[C@H]1CC[C@H]2[C@@H]3CC[C@@H]4C[C@H](OCc5ccccc5)CC[C@]4(C)[C@H]3C[C@H](OCc3ccccc3)[C@]12C [Compound 16, Methyl 3α,12α-Dibenzyloxy-5β-cholan-24-oate]
Tdp2 activity, c 200 µM (recombinant human TDP2): - | Tdp2 (inhibitor concentration 1 mM) (recombinant human TDP2): - | melting point: 93.3 to 93.7 °C

Compound: C[C@H](CCC(=O)NN)[C@H]1CC[C@H]2[C@@H]3CC[C@@H]4C[C@H](OCc5ccccc5)CC[C@]4(C)[C@H]3C[C@H](OCc3ccccc3)[C@]12C [Compound 17, 3α,12α-Dibenzyloxy-5β-cholan-24-hydrazide]
Tdp2 activity, c 200 µM (recombinant human TDP2): + | Tdp2 (inhibitor concentration 1 mM) (recombinant human TDP2): + | remaining activity at 1000 µM (recombinant human TDP2): > 50% | melting point: 179 to 180 °C | IC50 (TDP1; [4]): 230 ± 80 nM

Compound: C[C@H](CCC(=O)N/N=C/c1ccc(Br)cc1)[C@H]1CC[C@H]2[C@@H]3CC[C@@H]4C[C@H](OCc5ccccc5)CC[C@]4(C)[C@H]3C[C@H](OCc3ccccc3)[C@]12C [Compound 18, N’-(4″-Bromobenzylidene)-3α,12α-dibenzyloxy-5β-cholan-24-hydrazide]
Tdp2 activity, c 200 µM (recombinant human TDP2): + | Tdp2 (inhibitor concentration 1 mM) (recombinant human TDP2): + | remaining activity at 1000 µM (recombinant human TDP2): < 50% | melting point: 147.7 to 150 °C | IC50 (TDP1; [4]): 510 ± 210 nM

Compound: C[C@H](CCc1nnc(-c2ccc(Br)cc2)o1)[C@H]1CC[C@H]2[C@@H]3CC[C@@H]4C[C@H](OCc5ccccc5)CC[C@]4(C)[C@H]3C[C@H](OCc3ccccc3)[C@]12C [Compound 19, 2′-(24-Nor-3α,12α-dibenzyloxy-5β-cholan-23-yl)-5′-(4″-bromophenyl)-1′,3′,4′-oxadiazole]
remaining activity at 1000 µM (recombinant human TDP2): < 50% | melting point: 131.4 °C (dec.) | IC50 (TDP1; [4]): 1010 ± 430 nM
